The target in one data set is T1, GCase (Homo sapiens, UniProt P04062).
T1 sequence (P04062 40-536): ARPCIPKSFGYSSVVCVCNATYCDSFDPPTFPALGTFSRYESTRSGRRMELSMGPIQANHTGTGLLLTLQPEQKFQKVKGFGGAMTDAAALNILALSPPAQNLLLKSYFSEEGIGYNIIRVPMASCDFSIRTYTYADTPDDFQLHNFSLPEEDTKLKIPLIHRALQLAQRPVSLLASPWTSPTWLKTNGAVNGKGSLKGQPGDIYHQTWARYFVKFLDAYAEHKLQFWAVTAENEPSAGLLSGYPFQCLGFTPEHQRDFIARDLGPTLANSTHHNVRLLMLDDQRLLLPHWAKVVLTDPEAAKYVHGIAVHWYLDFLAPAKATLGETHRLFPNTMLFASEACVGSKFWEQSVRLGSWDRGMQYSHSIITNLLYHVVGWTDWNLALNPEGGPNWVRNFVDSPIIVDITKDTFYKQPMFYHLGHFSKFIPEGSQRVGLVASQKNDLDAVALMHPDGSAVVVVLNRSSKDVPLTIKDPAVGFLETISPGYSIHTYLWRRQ
Briefly: GCase activity enhancement (EC50, Emax; Table 2B). Type of data set: cell-based.

Data set [1] in a line: Compound concentration in brain, spleen and plasma samples of the GCase enhancement study. The class given is in vivo, mice (C57BL/6). As to conditions: male, C57BL/6, mouse, po, nine doses, 24-hour washout. How it is done: The ability of orally administered test compounds (the hydrochloride salt form of Compound A and Compound B) to elevate GCase levels as compared to reference compound, IFG-tartrate, was assessed in mice. […] Seven animals were used per dose. The dosing solutions were prepared in water. Compounds were administered over 2 weeks as follows: week 1, Mon-Fri (On), Sat-Sun (Off); week 2, Mon-Thu (On); necropsy on Friday. Thus, a total of 9 doses (dosing solutions prepared fresh every day) were given to each mouse, with a 24-hour washout between the last dose and necropsy.
Plasma was collected by spinning blood at 2700 g for 10 minutes at 4° C. Liver, spleen, lung, and brain tissues were removed, washed in cold PBS, blotted dry, flash frozen on dry ice, and stored at −80° C. until analysis. GCase levels were measured by homogenizing approximately 50 mg tissue in 500 μl McIlvane (MI) buffer (100 mM sodium citrate, 200 mM sodium phosphate dibasic, 0.25% sodium taurocholate, and 0.1% Triton X-100, pH 5.2) at pH 5.2 for 3-5 seconds on ice with a micro homogenizer. Homogenates were then incubated at room temperature without and with 2.5 mM conduritol-B-epoxide (CBE) for 30 min. Finally, 3.7 mM 4-methylumbeliferryl-β-glucoside (4-MUG) substrate was added and incubated at 37° C. for 60 min. Reactions were stopped by addition of 0.4 M glycine, pH 10.6. Fluorescence was measured on a plate reader for 1 sec/well using 355 nm excitation and 460 nm emission. Total protein was determined in lysates using the MicroBCA kit according to the manufacturer's instructions. A 4-methylumbelliferone (4-MU) standard curve ranging from 1.0 nM to 50 μM was run in parallel for conversion of raw fluorescence data to absolute GCase activity (in the presence and absence of CBE) and expressed as nanomoles of 4-MU released per milligram of protein per hour (nmol/mg protein/hr). GCase levels and protein levels were calculated using Microsoft Excel (Redmond, Wash.) and GraphPad Prism version 4.02.

Where a name gives a salt, the structure may show the parent alone.

A word on the Emax: it is the maximal effect, on the per cent scale that the assay sets. Usually melting point stands for the temperature of the solid-liquid transition.

For `OC[C@H]1CNC[C@@H](O)[C@@H]1O` [IFG-Tartrate, Isofagomine tartrate, reference compound], the Emax on GCase came to 93.6 ± 2.5%.
`OC[C@H]1CNC[C@@H](O)[C@@H]1O` [IFG, (3R,4R,5R)-5-(hydroxymethyl)-3,4-piperidinediol, reference compound]: the concentration at 24 h in data set [1] (brain, 10 mg/kg, 10 mg/kg p.o., Table 4A) came out at 49 ± 2.4 nM; in data set [1] (brain, 100 mg/kg, 100 mg/kg p.o., Table 3A), 182 ± 13 nM; in data set [1] (brain, 100 mg/kg, 100 mg/kg p.o., Table 4A), 287 ± 74 nM; in data set [1] (plasma, 10 mg/kg, 10 mg/kg p.o., Table 4C), 67 ± 10 nM; in data set [1] (plasma, 100 mg/kg, 100 mg/kg p.o., Table 3C), 330 ± 36 nM; in data set [1] (plasma, 100 mg/kg, 100 mg/kg p.o., Table 4C) it was 852 ± 134 nM. For the same molecule, the concentration at 24 h was found to be 150 ± 12 nM in data set [1] (spleen, 10 mg/kg, 10 mg/kg p.o., Table 4B); 711 ± 100 nM in data set [1] (spleen, 100 mg/kg, 100 mg/kg p.o., Table 3B); 1140 ± 220 nM in data set [1] (spleen, 100 mg/kg, 100 mg/kg p.o., Table 4B).
As to `Cl.O[C@@H]1[C@@H](CF)CNC[C@H]1O` [Compound A-HCl, (3R,4R,5R)-5-(fluoromethyl)piperidine-3,4-diol hydrochloride], the melting point was in the range of 200 to 202 °C.
